Source: EP0025288A1, “Derivatives of monic acid, processes for their preparation, compositions containing them and their preparation” (priority 1979, dated 1981)

Assays:
Type in all cases: cell-based
E coli NCTC 10418 [1] = test: MIC, human bacteria, serial dilution in nutrient agar; conditions: nutrient agar containing 5% 'chocolated' horse blood
E coli ESS = test: as above; conditions: nutrient agar containing 5% 'chocolated' horse blood
P mirabilis 889 = test: as above; conditions: nutrient agar containing 5% 'chocolated' horse blood
K aerogenes A = test: as above; conditions: nutrient agar containing 5% 'chocolated' horse blood
Ps aeruginosa 10662 = test: as above; conditions: nutrient agar containing 5% 'chocolated' horse blood
[2] = tested on: Pasteurella multocida 1633; test: as above; conditions: nutrient agar containing 5% 'chocolated' horse blood
[3] = tested on: Haemophilus influenzae Q1; test: as above; conditions: nutrient agar containing 5% 'chocolated' horse blood
[4] = tested on: Haemophilus influenzae Wy21; test: as above; conditions: nutrient agar containing 5% 'chocolated' horse blood
[5] = tested on: Neisseria flavescens 8263; test: as above; conditions: nutrient agar containing 5% 'chocolated' horse blood
Bacillus subtilis 6633 = test: as above; conditions: nutrient agar containing 5% 'chocolated' horse blood
[6] = tested on: Corynebacterium zerosis 9755; test: as above; conditions: nutrient agar containing 5% 'chocolated' horse blood
Sercina lutea 8340 = test: as above; conditions: nutrient agar containing 5% 'chocolated' horse blood
Staph aureus Oxford [7] = test: as above; conditions: nutrient agar containing 5% 'chocolated' horse blood
Staph aureus Russell = test: as above; conditions: nutrient agar containing 5% 'chocolated' horse blood
Staph aureus W2827 = test: as above; conditions: nutrient agar containing 5% 'chocolated' horse blood
Strep faecalis I = test: as above; conditions: nutrient agar containing 5% 'chocolated' horse blood
Strep pyogenes A 64/848 = test: as above; conditions: nutrient agar containing 5% 'chocolated' horse blood
Strep pyogenes B 2788 = test: as above; conditions: nutrient agar containing 5% 'chocolated' horse blood
Strep pyogenes C 2761 = test: as above; conditions: nutrient agar containing 5% 'chocolated' horse blood
Strep pneumoniae CN33 = test: as above; conditions: nutrient agar containing 5% 'chocolated' horse blood
E coli NCTC 10418 [8] = test: MIC, veterinary bacteria; conditions: veterinary bacteria (Table 2)
E coli E1 = test: MIC, veterinary bacteria; conditions: veterinary bacteria (Table 2)
S dublin S7 = test: MIC, veterinary bacteria; conditions: veterinary bacteria (Table 2)
S typhimurium S18 = test: MIC, veterinary bacteria; conditions: veterinary bacteria (Table 2)
Bord bronchiseptica BO8 = test: MIC, veterinary bacteria; conditions: veterinary bacteria (Table 2)
Bord bronchisptica BO9 = test: MIC, veterinary bacteria; conditions: veterinary bacteria (Table 2)
Past multocida PA1 = test: MIC, veterinary bacteria; conditions: veterinary bacteria (Table 2)
Past multocida PA2 = test: MIC, veterinary bacteria; conditions: veterinary bacteria (Table 2)
Past Haemolytica PA5 = test: MIC, veterinary bacteria; conditions: veterinary bacteria (Table 2)
[9] = tested on: Erysipelothrix rhusiopathiae NCTC 8163; test: MIC, veterinary bacteria; conditions: veterinary bacteria (Table 2)
[10] = tested on: Corynebacterium pyogenes CY1; test: MIC, veterinary bacteria; conditions: veterinary bacteria (Table 2)
[11] = tested on: Staph aureus B4 (pen resis); test: MIC, veterinary bacteria; conditions: veterinary bacteria (Table 2)
[12] = tested on: Staph aureus 152 (pen sens); test: MIC, veterinary bacteria; conditions: veterinary bacteria (Table 2)
Staph aureus Oxford [13] = test: MIC, veterinary bacteria; conditions: veterinary bacteria (Table 2)
[14] = tested on: Strep suis (group D) SPS11; test: MIC, veterinary bacteria; conditions: veterinary bacteria (Table 2)
Strep uberis SPU1 = test: MIC, veterinary bacteria; conditions: veterinary bacteria (Table 2)
Strep dysgalaciae SPD1 = test: MIC, veterinary bacteria; conditions: veterinary bacteria (Table 2)
Strep agalactiae SPA1 = test: MIC, veterinary bacteria; conditions: veterinary bacteria (Table 2)
M suipneumoniae Str 11 = test: MIC, anti-mycoplasmal, Friis' broth microtiter method
[15] = tested on: M suipneumoniae J2206/183b; test: as above
M dispar H225 = test: as above
M dispar NCTC 10125 = test: as above
M pneumoniae 427a [16] = test: as above
M pneumoniae ATCC 15492 [17] = test: as above
M fermentans MWKL4 [18] = test: as above
M pulmonis JB [19] = test: as above
M pneumoniae 427a [20] = test: MIC, anti-mycoplasmal, serial dilution in Friis' agar
M pneumoniae ATCC 15492 [21] = test: as above
M bovis ATCC 25025 = test: as above
M bovis NCTC 10131 = test: as above
M fermentans MWKL4 [22] = test: as above
M pulmonis JB [23] = test: as above
M hyorhinis ATCC 23234 = test: as above
M hyosynoviae ATCC 25591 = test: as above
M arthritidis ATCC 14124 = test: as above
M gallisepticum S6 = test: as above
M synoviae ATCC 25204 = test: as above
M alkalescens NCTC 10135 = test: as above
[24] = tested on: M bovigenitalium ATCC 14173; test: as above

8-Acetvloctyl Monate A [Example 3]
MIC (E coli NCTC 10418 [1]): 100 µm/ml | MIC (E coli ESS): 0.5 µm/ml | MIC (P mirabilis 889): >100 µm/ml | MIC (K aerogenes A): >100 µm/ml | MIC (Ps aeruginosa 10662): >100 µm/ml | MIC [2]: 1.0 µm/ml | MIC [3]: 0.2 µm/ml | MIC [4]: 0.2 µm/ml | MIC [5]: 0.1 µm/ml | MIC (Bacillus subtilis 6633): 0.2 µm/ml | MIC [6]: 100 µm/ml | MIC (Sercina lutea 8340): >100 µm/ml | MIC (Staph aureus Oxford [7]): 0.1 µm/ml | MIC (Staph aureus Russell): 9.5 µm/ml | MIC (Staph aureus W2827): 100 µm/ml | MIC (Strep faecalis I): 100 µm/ml | MIC (Strep pyogenes A 64/848): 0.2 µm/ml | MIC (Strep pyogenes B 2788): 0.5 µm/ml | MIC (Strep pyogenes C 2761): 0.5 µm/ml | MIC (Strep pneumoniae CN33): 0.2 µm/ml | MIC (E coli NCTC 10418 [8]): >80 µg/mL | MIC (E coli E1): >80 µg/mL | MIC (S dublin S7): >80 µg/mL | MIC (S typhimurium S18): >80 µg/mL | MIC (Bord bronchiseptica BO8): 20 µg/mL | MIC (Bord bronchisptica BO9): 5 µg/mL | MIC (Past multocida PA1): 2.5 µg/mL | MIC (Past multocida PA2): 0.156 µg/mL | MIC (Past Haemolytica PA5): 20 µg/mL | MIC [9]: 10 µg/mL | MIC [10]: >80 µg/mL | MIC [11]: 0.312 µg/mL | MIC [12]: 0.312 µg/mL | MIC (Staph aureus Oxford [13]): 0.312 µg/mL | MIC [14]: 1.25 µg/mL | MIC (Strep uberis SPU1): 0.07 µg/mL | MIC (Strep dysgalaciae SPD1): 0.156 µg/mL | MIC (Strep agalactiae SPA1): 0.625 µg/mL | in vitro MIC, BROTH (M suipneumoniae Str 11): 0.039 µg/mL | in vitro MIC, BROTH [15]: 0.156 µg/mL | in vitro MIC, BROTH (M dispar H225): 0.039 µg/mL | in vitro MIC, BROTH (M dispar NCTC 10125): <0.02 µg/mL | in vitro MIC, BROTH (M pneumoniae 427a [16]): 0.312 µg/mL | in vitro MIC, BROTH (M pneumoniae ATCC 15492 [17]): 0.312 µg/mL | in vitro MIC, BROTH (M fermentans MWKL4 [18]): <0.02 µg/mL | in vitro MIC, BROTH (M pulmonis JB [19]): <0.02 µg/mL | in vitro MIC, AGAR (M pneumoniae 427a [20]): 1.25 µg/mL | in vitro MIC, AGAR (M pneumoniae ATCC 15492 [21]): 1.25 µg/mL | in vitro MIC, AGAR (M bovis ATCC 25025): 0.039 µg/mL | in vitro MIC, AGAR (M bovis NCTC 10131): ≤0.02 µg/mL | in vitro MIC, AGAR (M fermentans MWKL4 [22]): 0.039 µg/mL | in vitro MIC, AGAR (M pulmonis JB [23]): 0.039 µg/mL | in vitro MIC, AGAR (M hyorhinis ATCC 23234): 0.625 µg/mL | in vitro MIC, AGAR (M hyosynoviae ATCC 25591): 0.156 µg/mL | in vitro MIC, AGAR (M arthritidis ATCC 14124): 2.5 µg/mL | in vitro MIC, AGAR (M gallisepticum S6): 5.0 µg/mL | in vitro MIC, AGAR (M synoviae ATCC 25204): <0.02 µg/mL | in vitro MIC, AGAR (M alkalescens NCTC 10135): 0.039 µg/mL | in vitro MIC, AGAR [24]: 0.078 µg/mL
